In the METLIN SMRT retention time set (Domingo-Almenara et al. 2019):

Test: gradient 5% acetonitrile 3 min, to 50% in 2 min, to 85% in 15 min, held 3 min, 100 µL/min
Settings: column: Zorbax Extend-C18 2.1 x 50 mm; eluents: water / acetonitrile, 0.1% formic acid
Method in brief: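 Each retention time is based on an adduct peak selected computationally and verified by manual inspection. Measurements used HPLC–quadrupole time-of-flight mass spectrometry in positive and negative ionization mode on mixtures of ~100 pure standards. Chromatography ran on a Zorbax Extend-C18 column (2.1 × 50 mm, 1.8 μm) at 100 μL/min with water and acetonitrile, each containing 0.1% formic acid, and dead and dwell volumes of 40 μL and 900 μL.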

COc1cccc(Nc2nnc(CC(=O)N3CCSCC3)s2)c1
RP-LC retention time: 676 s

O=C(NCC1CCCO1)c1nc2ccccn2c1-c1ccc(Cl)cc1 (stereo not given)
RP-LC retention time: 785 s

Cc1nc(-c2csc(S(=O)(=O)N3CCCC(C(=O)NCc4ccccc4Cl)C3)c2)no1 (stereo not given)
RP-LC retention time: 940 s

O=C(c1c(F)cccc1Cl)N1CCc2nc(-c3ccc(F)cc3)ncc2C1
RP-LC retention time: 1020 s

CCOc1ccc(C2NC(=O)NC(C)=C2C(=O)OC2CCCC2)cc1OC (stereo not given)
RP-LC retention time: 770 s

Cc1ccc(Cn2c(=O)n(CCNC(=O)CC(C)C)c3ncccc32)cc1
RP-LC retention time: 806 s

O=C(CC1CCCN(c2cnn(CC3CC3)c(=O)c2)C1)N1CCSCC1 (stereo not given)
RP-LC retention time: 740 s

Cc1nc(-c2ccc(-n3cc(C(=O)Nc4ccc(Br)cc4F)c(C)n3)cc2)no1
RP-LC retention time: 962 s

COc1ccc(OCC(=O)NS(=O)(=O)c2ccccc2)cc1
RP-LC retention time: 745 s

CCn1nnc2ccc(-c3noc(-c4ccc(NC(C)=O)cc4)n3)cc21
RP-LC retention time: 807 s

Cc1ccc(-n2ccc(=O)c(-c3nc(-c4ccc(Cl)c(F)c4)no3)n2)cc1
RP-LC retention time: 1050 s

COc1cccc(CCN2CC(=O)N(c3ccc(C)c(C)c3)[C@@H]3CS(=O)(=O)C[C@@H]32)c1
RP-LC retention time: 872 s

CCCNS(=O)(=O)c1cc(-c2nnc(-c3ccccc3)o2)ccc1OC
RP-LC retention time: 891 s

Cc1ccc(-n2nc(C)c3c(C)cc(OCC(=O)NCc4ccc5c(c4)OCO5)nc32)cc1
RP-LC retention time: 1060 s

COC(=O)CNC(=O)Nc1ncc(-c2ccccc2)n1C
RP-LC retention time: 596 s

COc1ccc(NC(=O)c2c(C)oc3nc(C)nc(N4CCOCC4)c23)c(OC)c1
RP-LC retention time: 818 s

Cc1ccc(NS(=O)(=O)c2cc3n(c2)CCN(C(C)C)C3=O)c(C)c1
RP-LC retention time: 800 s

Cc1sc(NC(=O)c2ccco2)c(CN2CCN(c3ccc(F)cc3)CC2)c1C
RP-LC retention time: 691 s

Cc1cccc(CNC(=O)C2(C)Oc3cccnc3N(C)C2=O)c1 (stereo not given)
RP-LC retention time: 876 s

Cc1ccc(-c2nc(Nc3ccccc3F)sc2CC(=O)O)cc1
RP-LC retention time: 960 s

Cc1cc(C)n(Cc2ccc(C(=O)N3CCN(c4ccc(=O)n(-c5ccccc5)n4)CC3)o2)n1
RP-LC retention time: 706 s

CCc1cc(=O)n(Cc2cccc(F)c2)c(N2CCOCC2)n1
RP-LC retention time: 909 s

COC(=O)c1c(C)[nH]c(C(=O)N2CCC(CC(=O)NCc3ccc(C)cc3)CC2)c1C
RP-LC retention time: 762 s

O=C(Nc1ccc(F)cc1F)c1cc2n(n1)CCCC2
RP-LC retention time: 912 s

O=C1CC(c2noc(-c3ccc4c(c3)OCO4)n2)CN1c1ccc(F)c(Cl)c1 (stereo not given)
RP-LC retention time: 1010 s

Cc1nc2cc(N3CC(C(=O)Nc4cccc(Br)c4)CC3=O)ccc2o1 (stereo not given)
RP-LC retention time: 805 s

O=C(c1cc2c(s1)CCC(C(=O)N1CCN(c3ccccn3)CC1)C2)N1CCCCC1 (stereo not given)
RP-LC retention time: 621 s

Cc1cc(C)cc(NC(=O)Cn2c(=O)n(-c3cccc(C)c3)c(=O)c3c2cc(C)n3C)c1
RP-LC retention time: 882 s

Cn1nnc2ccc(-c3noc(Cc4cccc(F)c4)n3)cc21
RP-LC retention time: 921 s

CSc1ccccc1CN1CCC(CNC(=O)Nc2c(F)cccc2F)CC1
RP-LC retention time: 580 s

Cc1ccc2c(C(=O)NCCN3CCCCC3)cc(NC(=O)C3CCC3)cc2n1
RP-LC retention time: 562 s

Cc1ccc(C)c(NC(=O)Cc2nnc(-c3ccc4ncccc4c3)o2)c1
RP-LC retention time: 736 s

O=C(NCCCN1CCC(Cc2ccccc2)CC1)C1CCCN(S(=O)(=O)N2CCCCC2)C1 (stereo not given)
RP-LC retention time: 745 s

COCCNC(=O)CCc1cc2ccc(C)cc2[nH]c1=O
RP-LC retention time: 614 s

COc1ccc(CCS(=O)(=O)NCC2CCN(Cc3cccs3)CC2)cc1
RP-LC retention time: 564 s

Cc1ccc(NC(=O)Cn2c(=O)n(-c3ccccc3)c3ncccc32)c(C)c1
RP-LC retention time: 848 s

Cc1cc(=O)n(CC(=O)NCc2ccccc2)c(N(C)Cc2ccccc2)n1
RP-LC retention time: 684 s

CN1c2cc(F)ccc2C(=O)NC12CCN(C(=O)c1ccc(F)cc1)CC2
RP-LC retention time: 744 s

O=C(c1nc2nc(-c3cccs3)cc(C(F)(F)F)n2n1)N1CCN(c2ccccn2)CC1
RP-LC retention time: 672 s

CCn1cc(CC(=O)NCc2ccc(C)o2)c2cccnc21
RP-LC retention time: 682 s

Cc1ccc(NC(=O)C2CCCN(c3nc4ccccc4nc3C(F)(F)F)C2)c(C)c1 (stereo not given)
RP-LC retention time: 1230 s

CCCCS(=O)(=O)c1cc2c(cc1NC(=O)c1ccccc1)n(C)c(=O)n2C
RP-LC retention time: 887 s

O=S(=O)(c1cccnc1)N1CCCn2nc(-c3cccc(F)c3)cc2C1
RP-LC retention time: 698 s

Cc1nn(CC(=O)NCCN2CCCC2)c(=O)c2cc(-c3ccccc3)nn12
RP-LC retention time: 631 s

Cc1ccc(C2CC(=O)N(c3ccc(F)cc3F)C(=O)C2)cc1
RP-LC retention time: 987 s
